# Test results from publication PMC12028472, “Marine-Derived Yaequinolone Derivative CHNQD-02792 Suppresses Colorectal Cancer Cell Proliferation and Induces Apoptosis via MAPK Pathway Modulation” (Marine Drugs, 2025).
# How the values were obtained:
# [1] = test system: HT-29; experiment: MTT assay, HT-29 cells; format: cell-based; settings: Homo sapiens, 72 h
# Procedure: (§1) Human colorectal adenocarcinoma cells HT-29, HCT-116, DLD-1, LS-174T, RKO, and LoVo, as well as mouse colorectal carcinoma cell CT-26, were purchased from the Chinese Academy of Sciences Shanghai Cell Bank.
# (§2) Cells stored at −80 °C were rapidly thawed in a 37 °C water bath, centrifuged to collect, and resuspended in a complete medium for culturing in a 37 °C, 5% CO2 incubator. Then, they were rinsed twice with PBS, digested with trypsin, and resuspended in a complete medium after detachment. HT-29, HCT-116, DLD-1, and CT-26 cells were cultured in RPMI-1640 medium supplemented with 10% FBS and 1% penicillin-streptomycin. LS-174T cells were cultured in DMEM-H medium, LoVo in Ham’s F-12K medium, and RKO in MEM.
# (§3) Cells in the logarithmic growth phase were seeded in 96-well plates at 4000 cells per well, adjusted based on growth rates, and incubated overnight at 37 °C with 5% CO2. Experimental wells were treated with yaequinolone derivatives at concentrations of 0.4, 2, 10, 20, and 50 μM, while control wells received equivalent dilutions of DMSO to minimize effects. Each group was prepared in five replicates and incubated for 72 h. After removing the drug-containing medium, 100 μL of MTT solution (5 mg/mL) was added to each well and incubated at 37 °C for 4 h. The solution was then aspirated, replaced with 200 μL of DMSO, incubated for 10 min at 37 °C, and shaken before measuring absorbance (OD) at 570 nm using a microplate reader. The tumor cell survival rate was calculated as follows: survival rate (%) = [(OD experimental group − OD blank group)/(OD control group − OD blank group)] × 100%. All experiments were conducted in triplicate.
# [2] = test system: CT-26; experiment: MTT assay, CT-26 cells; format: cell-based; settings: Mus musculus, CT26, 72 h
# Procedure: as §1, §2, §3
# [3] = test system: RKO; experiment: MTT assay, RKO cells; format: cell-based; settings: Homo sapiens, 72 h
# Procedure: as §1, §2, §3
# [4] = test system: DLD-1; experiment: MTT assay, DLD-1 cells; format: cell-based; settings: Homo sapiens, 72 h
# Procedure: as §1, §2, §3
# [5] = test system: LoVo; experiment: MTT assay, LoVo cells; format: cell-based; settings: Homo sapiens, 72 h
# Procedure: as §1, §2, §3
# [6] = test system: LS-174T; experiment: MTT assay, LS-174T cells; format: cell-based; settings: Homo sapiens, LS174T, 72 h
# Procedure: as §1, §2, §3
# [7] = test system: HCT-116; experiment: MTT assay, HCT-116 cells; format: cell-based; settings: Homo sapiens, 72 h
# Procedure: as §1, §2, §3
# [8] = test system: Bax; experiment: Western blot, Bax expression in HT-29 cells; format: cell-based, human; settings: HT-29, increasing concentrations (2.3, 4.5, 9 μM)
# Procedure: (§4) Cells in the logarithmic growth phase were seeded at 600,000 cells per well in 6-well plates and incubated overnight at 37 °C with 5% CO2. CHNQD-02792 (2.3, 4.5, and 9 μM) was added to the experimental group, while an equivalent dilution of DMSO was added to the control group. After 24 h of treatment, the cells were collected from the incubator. The cells were washed twice with pre-cooled PBS, and the proteins were extracted using ice-cold RIPA lysis buffer (RIPA-PMSF, 99:1, v/v). Adherent cells were scraped off the Petri dish with a pre-cooled plastic scraper. Protein concentrations were measured using a BCA kit. Protein samples were mixed with 5× loading buffer, boiled in a metal bath for 6 min, and stored at −20 °C. Proteins of different molecular weights were separated by gel electrophoresis and transferred onto PVDF membranes using wet transfer. The membrane was blocked with 5% skimmed milk powder for 2 h, followed by incubation with the primary antibody overnight at 4 °C. After three washes with TBST (10 min each), the membrane was incubated with the secondary antibody at room temperature for 1 h. It was then washed three times with TBST (10 min each) and analyzed using a gel imaging system with a high-sensitivity ECL luminescent solution.
# [9] = test system: HT-29 cells; experiment: Plate colony formation assay; format: cell-based, human; settings: 9 μM, 14 days
# Procedure: Cells in the logarithmic growth phase were seeded at 1000 per well in 6-well plates and incubated overnight at 37 °C with 5% CO2. CHNQD-02792 (2.3, 4.5, and 9 μM) was added to the experimental group, while the control group received an equal dilution of DMSO. The medium color was monitored regularly, and the medium was replaced simultaneously in both groups. After 14 days, clonal clusters (approximately 50 cells) were formed. The cells were washed with PBS, fixed with 4% paraformaldehyde for 1 h, stained with crystal violet for 30 min, washed again with PBS, dried, photographed, and analyzed using Image J software (v 1.8.0.) to count colonies. The cell proliferation rate was calculated by comparing the experimental group with the control group treated with DMSO.
# [10] = test system: Caspase-3; experiment: Western blot, Caspase-3 expression in HT-29 cells; format: cell-based, human; settings: HT-29, increasing concentrations (2.3, 4.5, 9 μM)
# Procedure: as §4
# [11] = test system: HT-29 cells; experiment: Cell cycle assay (PI, flow cytometry); format: cell-based, human; settings: highest concentration, 48 h, control 16.42%
# Procedure: Cells in the logarithmic growth phase were seeded at 350,000 cells per well in 6-well plates and incubated overnight at 37 °C with 5% CO2. CHNQD-02792 (2.3, 4.5, 9 μM) was added to the experimental group, while an equal dilution of DMSO was added to the control group. After 48 h, cells were collected, centrifuged at 300× g for 5 min at 4 °C, and resuspended in 1 mL of ice-cold PBS. This step was repeated, and the supernatant was discarded. The cells were then resuspended in 300 μL of PBS, and 700 μL of pre-cooled anhydrous ethanol was added dropwise for fixation at 4 °C overnight. Within 12–24 h, cells were centrifuged at 1000× g for 5 min, and the supernatant was discarded. The cells were washed with 1 mL of pre-cooled PBS, centrifuged again, and resuspended in 500 μL of PBS. RNase A and PI were then added to each tube, […]. The cells were incubated at 4 °C with RNase A and PI in the dark for 30 min. Data were collected using a flow cytometer (488 nm laser excitation, 620/29 nm filter), and results were analyzed using FlowJo software (v.10.8.1).
# [12] = test system: RAW264.7 cells; experiment: Inhibition of RAW264.7 cells (normal cells vs cancer cells); format: cell-based; settings: Mus musculus
# Text: Therefore, to verify the difference between CHNQD-02792 on normal cells and cancer cells, we examined the inhibition of CHNQD-02792 on RAW264.7 cells. […] The inhibition of HT-29 cell colony formation increased with higher concentrations of CHNQD-02792.
# [13] = test system: LPS-induced RAW264.7 cells; set-up: method as in PMID 36758306; settings: 50 nM; cited from earlier work
# [14] = test system: CDK1; experiment: Western blot, CDK1 expression in HT-29 cells; format: cell-based, human; settings: HT-29, increasing concentrations (2.3, 4.5, 9 μM)
# Procedure: as §4
# [15] = test system: JNK; experiment: Western blot, JNK phosphorylation in HT-29 cells; format: cell-based, human; settings: HT-29, Western blot
# Procedure: as §4
# [16] = test system: HT-29 cells; experiment: Apoptosis assay (Annexin V-FITC/PI flow cytometry); format: cell-based, human
# Procedure: Cells in the logarithmic growth phase were seeded at 600,000 cells per well in 6-well plates and incubated overnight at 37 °C in a 5% CO2 incubator. CHNQD-02792 (2.3, 4.5, 9 μM) was added to the experimental group, while the control group received an equal dilution of DMSO. After 48 h, cells were collected, centrifuged at 300× g for 5 min, and washed once with PBS. The cells were gently resuspended and counted. Take 1–5 × 10^5 resuspended cells, centrifuge at 300× g for 5 min, and discard the supernatant. The cells were washed once with PBS, centrifuged again, and the supernatant was discarded. Then, 500 μL of 1× diluted Annexin V Binding Buffer was added to resuspend the cells. Add 5 μL of Annexin V-FITC and 5 μL of PI (50 μg/mL) to the cell suspension. After gently vortexing, incubate the samples at room temperature in the dark for 15–20 min. Immediately analyze the samples using a flow cytometer. The results were analyzed using Novoexpress software (v.1.6.2).
# [17] = test system: ERK; experiment: Western blot, ERK phosphorylation in HT-29 cells; format: cell-based, human; settings: HT-29, Western blot
# Procedure: as §4
# [18] = test system: LPS-induced RAW264.7 cells; set-up: method as in PMID 36758306; settings: 10 nM; cited from earlier work
# [19] = test system: Cyclin B1; experiment: Western blot, Cyclin B1 expression in HT-29 cells; format: cell-based, human; settings: HT-29, increasing concentrations (2.3, 4.5, 9 μM)
# Procedure: as §4
# [20] = test system: Bcl-2; experiment: Western blot, Bcl-2 expression in HT-29 cells; format: cell-based, human; settings: HT-29, increasing concentrations (2.3, 4.5, 9 μM)
# Procedure: as §4
IC50 [1] [µM],IC50 [4] [µM],IC50 [5] [µM],IC50 [7] [µM],Compound,IC50 [2] [µM],IC50 [3] [µM],IC50 [6] [µM],other results
15.6,,,,"O=c1[nH]cc(F)c(=O)[nH]1 [5-fluorouracil, reference compound]",,,,
> 50,> 50,> 50,> 50,COc1ccc([C@]2(O)c3c(ccc4c3O[C@](C)(CCC=C(C)C)C=C4)N(Cc3cccc(Br)c3)C(=O)[C@H]2OC)cc1 [Compound 4],> 50,48.3,> 50,
> 50,> 50,25,> 50,COc1ccc([C@]2(O)c3c(ccc4c3O[C@@](C)(CCC=C(C)C)C=C4)N(Cc3cccc(Br)c3)C(=O)[C@H]2OC)cc1 [Compound 7],> 50,22,> 50,
42.8,11.6,> 50,25.8,CO[C@@H]1C(=O)Nc2ccc3c(c2[C@@]1(O)c1cccc(Br)c1)O[C@@](C)(CCC=C(C)C)C=C3 [Compound 12],26.3,37.3,7.7,
4.5,> 50,28.3,50,CO[C@@H]1C(=O)Nc2ccc3c(c2[C@@]1(O)c1cccc(Br)c1)O[C@](C)(CCC=C(C)C)C=C3 [Compound 13],> 50,28,24.3,"Bax protein expression [8]: increased; growth of HT-29 cells, plate cloning assay [9]: completely inhibited; Caspase-3 protein expression [10]: significantly increased; proportion of cells in the G2/M phase [11]: 31.78%; IC50 [12]: 27.2 µM; IL-6 level [13]: significantly inhibiting; CDK1 protein expression level [14]: decreased; phosphorylation of JNK [15]: increased; Q4 (early apoptotic cells) ([16]; 9.0 μM, 48 h, HT-29, Annexin V-FITC/PI, control 5.31%): 20.23%; proportion of apoptotic cells ([16]; 48 h of treatment, HT-29, control 6.81%): 26.10%; phosphorylation of ERK [17]: inhibited; NO release [18]: significantly inhibiting; Cyclin B1 protein expression level [19]: decreased; Bcl-2 protein expression [20]: markedly decreased"
